# In paper PMC6618241 (Angewandte Chemie (International Ed. in English), 2019):
# Test system: MRSA USA300 LAC
# Assay: Antimicrobial activity assay
# Type: cell-based, Staphylococcus aureus
substance,measurement,setting,value
"(CPraWLVWV) (head to tail) [compound 24, 2‐Pra‐6‐Trp‐lug]",antimicrobial activity against USA300 (in words),MIC ≥100 μg mL^−1 regarded as inactive,active
same,change of antimicrobial activity relative to 1,"from MIC values, compared with 1",equal activity
